Laboratory results reported in ChEMBL document CHEMBL1201862, “PubChem BioAssay data set” (2004).
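Each compound was tested at five concentrations against cells in 96-well plates for 48 hours. At the GI50, growth is halved.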 Active and inactive are the calls of the source. Cut-off read from the data, not from the text of the source: active = GI50 up to about 1.1 µM and inactive = higher.

Columns and labels:
Test in all cases: NCI anticancer screen, dose series, 48 h
M14 = test system: M14
SK-MEL-2 = test system: SK-MEL-2
SN12C = test system: SN12C
NCI-H226 = test system: NCI-H226
MDA-MB-231 = test system: MDA-MB-231
HOP-92 = test system: HOP-92
HL-60 = test system: HL-60
NCI-H23 = test system: NCI-H23
MCF7 = test system: MCF7
BT-549 = test system: BT-549
COLO 205 = test system: COLO 205
SK-MEL-5 = test system: SK-MEL-5
Malme-3M = test system: Malme-3M
SW-620 = test system: SW-620
UO-31 = test system: UO-31
K562 = test system: K562
SF-539 = test system: SF-539
OVCAR-3 = test system: OVCAR-3
HCC 2998 = test system: HCC 2998

Measured: GI50

C=C(C)[C@H]1C2=CC(C(=O)OC)=C(C[C@H](C(=C)C)[C@@H](O)[C@@H](O)C3=C[C@H]1OC3=O)O2
inactive: M14 > 100 µM | SK-MEL-2 > 100 µM | SN12C > 100 µM | NCI-H226 > 100 µM | MDA-MB-231 > 100 µM | HOP-92 65.5 µM | HL-60 61 µM | NCI-H23 > 100 µM | MCF7 > 100 µM | BT-549 > 100 µM | COLO 205 > 100 µM | SK-MEL-5 > 100 µM | Malme-3M > 100 µM | SW-620 > 100 µM | UO-31 18 µM | K562 > 100 µM | SF-539 > 100 µM | OVCAR-3 > 100 µM

C=C1C(=O)O[C@@H]2/C=C(/C)[C@@H](OC(C)=O)C/C=C(\C)C(O)[C@@H](OC(=O)/C(C)=C\C)C12 (stereo partly specified)
inactive: M14 33.1 µM | SK-MEL-2 27.6 µM | SN12C 21 µM | NCI-H226 > 100 µM | MDA-MB-231 19.1 µM | HOP-92 22.1 µM | HL-60 14.8 µM | HCC 2998 24.6 µM | NCI-H23 41.9 µM | MCF7 27.6 µM | BT-549 20.1 µM | COLO 205 18.1 µM | SK-MEL-5 15.8 µM | SW-620 16.5 µM | K562 22.6 µM | SF-539 34.4 µM | OVCAR-3 35.7 µM

C=C(C)[C@H]1C2=CC(C)=C(O2)[C@@H](O[C@@H]2c3oc(cc3C)[C@H](C(=C)C)[C@H]3C=C(CC[C@H]2C(=C)C)C(=O)O3)[C@H](C(=C)C)CCC2=C[C@H]1OC2=O
inactive: M14 > 100 µM | SK-MEL-2 > 100 µM | SN12C > 100 µM | NCI-H226 > 100 µM | MDA-MB-231 > 100 µM | HOP-92 > 100 µM | HL-60 > 100 µM | HCC 2998 > 100 µM | NCI-H23 > 100 µM | MCF7 > 100 µM | BT-549 > 100 µM | COLO 205 > 100 µM | SK-MEL-5 > 100 µM | Malme-3M > 100 µM | SW-620 > 100 µM | UO-31 > 100 µM | K562 > 100 µM | OVCAR-3 > 100 µM

CC1(C)CC23CC(C)(C)c4cccc(c42)OCc2ccc4ccc5ccc(nc5c4n2)COc2cccc1c23
inactive: M14 > 50 µM | SK-MEL-2 > 50 µM | SN12C > 50 µM | NCI-H226 > 50 µM | MDA-MB-231 > 50 µM | HOP-92 > 50 µM | HL-60 > 50 µM | HCC 2998 > 50 µM | MCF7 > 50 µM | BT-549 > 50 µM | COLO 205 > 50 µM | SK-MEL-5 > 50 µM | SW-620 > 50 µM | UO-31 > 50 µM | K562 > 50 µM | SF-539 > 50 µM | OVCAR-3 > 50 µM

C1CCN(CCC2CCCCN2)CC1 (stereo unspecified)
inactive: M14 > 100 µM | SK-MEL-2 > 100 µM | SN12C > 100 µM | NCI-H226 > 100 µM | MDA-MB-231 > 100 µM | HOP-92 > 100 µM | HL-60 > 100 µM | NCI-H23 > 100 µM | MCF7 > 100 µM | BT-549 > 100 µM | COLO 205 > 100 µM | SK-MEL-5 > 100 µM | Malme-3M > 100 µM | SW-620 > 100 µM | K562 > 100 µM | SF-539 > 100 µM | OVCAR-3 > 100 µM

O=c1c2c3c(sc2nc2n1N=CN(c1ccc(F)cc1)C2)CCCC3
inactive: M14 > 100 µM | SK-MEL-2 > 100 µM | SN12C > 100 µM | NCI-H226 > 100 µM | MDA-MB-231 > 100 µM | HOP-92 > 100 µM | HCC 2998 > 100 µM | NCI-H23 > 100 µM | MCF7 > 100 µM | BT-549 > 100 µM | COLO 205 > 100 µM | SK-MEL-5 > 100 µM | Malme-3M > 100 µM | SW-620 > 100 µM | UO-31 > 100 µM | K562 > 100 µM | OVCAR-3 > 100 µM

Cn1c2ccccc2n2c3ncccc3c(=S)c(C#N)c12
inactive: M14 > 100 µM | SK-MEL-2 > 100 µM | SN12C > 100 µM | NCI-H226 > 100 µM | MDA-MB-231 > 100 µM | HL-60 > 100 µM | HCC 2998 > 100 µM | NCI-H23 > 100 µM | MCF7 > 100 µM | BT-549 > 100 µM | COLO 205 > 100 µM | SK-MEL-5 > 100 µM | Malme-3M > 100 µM | SW-620 > 100 µM | UO-31 > 100 µM | K562 > 100 µM | OVCAR-3 > 100 µM

COC(=O)Oc1nn(C(=O)OC)c(=O)c2ccccc12
inactive: M14 > 100 µM | SK-MEL-2 > 100 µM | SN12C > 100 µM | NCI-H226 > 100 µM | MDA-MB-231 95.3 µM | HL-60 > 100 µM | HCC 2998 59.8 µM | NCI-H23 > 100 µM | MCF7 > 100 µM | BT-549 > 100 µM | COLO 205 85.1 µM | SK-MEL-5 > 100 µM | Malme-3M 42.4 µM | SW-620 > 100 µM | UO-31 > 100 µM | K562 > 100 µM | SF-539 61.8 µM | OVCAR-3 > 100 µM

COc1ccc(-n2c3c(c4c(CN(C)C)c(O)ccc42)C(=O)c2ccccc2C3=O)cc1
inactive: M14 3.54 µM | SK-MEL-2 10 µM | SN12C 2.82 µM | MDA-MB-231 3.08 µM | HOP-92 16 µM | HL-60 3.13 µM | HCC 2998 2.77 µM | NCI-H23 12.7 µM | MCF7 7.18 µM | BT-549 13.6 µM | COLO 205 8.09 µM | SK-MEL-5 1.69 µM | Malme-3M 11.4 µM | SW-620 2.07 µM | UO-31 1.96 µM | K562 2.09 µM | SF-539 2.04 µM | OVCAR-3 13.5 µM

Cc1c(C#N)c2ccccc2c2nc3ccccc3n12
inactive: SK-MEL-2 > 100 µM | SN12C 63.2 µM | NCI-H226 > 100 µM | MDA-MB-231 20.6 µM | HOP-92 > 100 µM | HL-60 > 100 µM | HCC 2998 64.3 µM | MCF7 50.9 µM | BT-549 > 100 µM | SK-MEL-5 5.82 µM | SW-620 81.3 µM | UO-31 11.7 µM | K562 > 100 µM | SF-539 39 µM | OVCAR-3 > 100 µM

N/C(=N\c1ccc(Cl)cc1)NS(=O)(=O)c1cccc2nsnc12
inactive: M14 27.9 µM | SK-MEL-2 11.9 µM | SN12C 25.4 µM | NCI-H226 68.7 µM | MDA-MB-231 17.9 µM | HOP-92 16.1 µM | HL-60 17.9 µM | NCI-H23 34.7 µM | MCF7 36.2 µM | BT-549 25.2 µM | SK-MEL-5 16.1 µM | Malme-3M 18 µM | SW-620 66.1 µM | UO-31 28.4 µM | K562 36.6 µM | SF-539 37.3 µM | OVCAR-3 44.3 µM

Nc1cccc2cc(S(=O)(=O)Nc3ccc(C(=O)O)cc3)ccc12
inactive: M14 > 100 µM | SK-MEL-2 > 100 µM | SN12C > 100 µM | NCI-H226 > 100 µM | MDA-MB-231 > 100 µM | HOP-92 > 100 µM | HL-60 > 100 µM | HCC 2998 > 100 µM | NCI-H23 > 100 µM | MCF7 > 100 µM | BT-549 > 100 µM | COLO 205 > 100 µM | SK-MEL-5 > 100 µM | Malme-3M > 100 µM | SW-620 > 100 µM | UO-31 > 100 µM | K562 > 100 µM | OVCAR-3 > 100 µM

O=C(Nc1ccccn1)c1cc2c(cc1Cl)Sc1nccn1S2(=O)=O
inactive: M14 48.9 µM | SK-MEL-2 20 µM | SN12C 36.6 µM | NCI-H226 24.2 µM | MDA-MB-231 21.1 µM | HOP-92 51.9 µM | HL-60 23.9 µM | HCC 2998 16.1 µM | NCI-H23 27.4 µM | MCF7 41.8 µM | BT-549 71.3 µM | COLO 205 33.5 µM | SK-MEL-5 25.6 µM | Malme-3M 63 µM | SW-620 45 µM | UO-31 27 µM | K562 32.3 µM | OVCAR-3 26.7 µM

c1ccc2c(c1)c1c(c3ccccc32)CN2CCCC2C1 (stereo unspecified)
inactive: M14 3.67 µM | SK-MEL-2 2.3 µM | SN12C 2.7 µM | MDA-MB-231 3.2 µM | HOP-92 2.84 µM | HL-60 1.41 µM | HCC 2998 4.22 µM | NCI-H23 2.94 µM | MCF7 2.44 µM | BT-549 5.05 µM | COLO 205 3.63 µM | SK-MEL-5 3.51 µM | Malme-3M 2.45 µM | SW-620 2.45 µM | UO-31 2.77 µM | K562 8.39 µM | SF-539 2.9 µM | OVCAR-3 3.26 µM

CCn1c(-c2ccc(OC(C)=O)cc2)c(C)c2cc(OC(C)=O)ccc21 [ZINDOXIFENE]
inactive: M14 18.1 µM | SK-MEL-2 18.5 µM | SN12C 27.5 µM | NCI-H226 30.1 µM | MDA-MB-231 14.6 µM | HOP-92 30.1 µM | HL-60 11 µM | NCI-H23 24.1 µM | MCF7 18 µM | BT-549 29.4 µM | COLO 205 21.7 µM | SK-MEL-5 13.8 µM | Malme-3M 21.7 µM | SW-620 23.4 µM | UO-31 20.7 µM | K562 11.8 µM | SF-539 15.8 µM | OVCAR-3 16.7 µM
